Where a name gives a salt, the structure may show the parent alone. Read-outs that look alike come from different tables or passages of the source.
What was measured:
rat primary hepatocytes [1] = system: rat primary hepatocytes
HepG2 cells [2] = conditions: cited from earlier work
HepG2 cells [3] = experiment: cells; conditions: Homo sapiens; for IC50: HepG2, read-out: MMP assays IC50 (µM) HepG2; for Emax: HepG2, read-out: MMP assays efficacy (%) HepG2
rat primary hepatocytes [4] = experiment: MMP assay in rat primary hepatocytes; conditions: for IC50: Rattus norvegicus, Hepatocyte, read-out: MMP assays IC50 (µM) Rat Hepatocytes
[5] = read-out: MMP assays IC50 (µM) qHTS-HepG2
[6] = read-out: MMP assays IC50 (µM), qHTS-HepG2

SMILES	MMP assays efficacy (%) Rat Hepatocytes (rat primary hepatocytes [1])	MMP assays efficacy (%) qHTS-HepG2 (HepG2 cells [2]) [%]	IC50 (HepG2 cells [2]; [5]) [µM]	IC50 (HepG2 cells [3]) [µM]	Emax (HepG2 cells [3]) [%]	IC50 (rat primary hepatocytes [4]) [µM]	MMP assays IC50 (µM) Rat Hepatocytes (rat primary hepatocytes [4])	IC50 (HepG2 cells [2]; [6]) [µM]
COP(=S)(OC)Oc1cc(Cl)c(Cl)cc1Cl [Fenchlorphos]	-96±29%	-97±9	13.6 ± 2.52	6.15	99	20.6 ± 1.68	–	–
C/C=C(/C(=C/C)c1ccc(O)cc1)c1ccc(O)cc1 [Dienestrol]	inactive	-98±10	10.9 ± 1.88	8.3	84	–	inactive	–
CCC(C)c1ccccc1O (stereo not drawn) [2-(Butan-2-yl)phenol]	inactive	-82±8	49.5 ± 9.45	25.1	32	–	inactive	–
ClC(Cl)=C(c1ccc(Cl)cc1)c1ccc(Cl)cc1 [p,p'-DDE]	inactive	-96±25	–	44.7	105	–	inactive	25.6 ± 1.71
O=[N+]([O-])c1ccc2c(c1)Cc1ccccc1-2 [Compound 2-Nitrofluorene]	-57±0%	-53±5	12.2 ± 0.86	50.1	41	38.1 ± 9.22	–	–
Oc1c(Cl)cc(Cl)cc1Sc1cc(Cl)cc(Cl)c1O [Bithionol]	-109±25%	-97±9	0.66 ± 0.52	0.97	92	2.47 ± 1.39	–	–
O=[N+]([O-])c1c2ccccc2cc2ccccc12 [Compound 9-Nitroanthracene]	-74±29%	-87±19	21.4 ± 12.8	35.5	88	33 ± 4.21	–	–
Oc1cc(Cl)ccc1Oc1ccc(Cl)cc1Cl [Triclosan]	-58±19%	-101±5	–	6.15	123	15.2 ± 13.5	–	1.5 ± 0.88
C[C@@]12C(=O)OC(=O)[C@]1(C)[C@H]1CC[C@@H]2O1 [Cantharidin]	-91±63%	-67±9	0.15 ± 0.08	0.12	98	0.45 ± 0.3	–	–
C#C[C@]1(O)CC[C@H]2[C@@H]3CCC4=CCCC[C@@H]4[C@H]3C(=C)C[C@@]21CC [Desogestrel]	inactive	-125±21	22.3 ± 2.11	27.5	84	–	inactive	–
COc1cc(/C=C/C(=O)CC(=O)/C=C/c2ccc(O)c(OC)c2)ccc1O [Curcumin]	-116±37%	-103±16	1.31 ± 1.03	2.51	96	11.6 ± 9.87	–	–
Cc1c(N)cccc1N [2,6-Toluenediamine]	-44±11%	-72±11	15.7 ± 10	28.2	85	32.2 ± 7.36	–	–
CN(C)c1ccc(N)cc1 [N,N-Dimethyl-p-phenylenediamine]	-69±29%	-100±15	–	7.08	109	21.7 ± 15.7	–	9.1 ± 0.59
CCCCCCCC(=O)Oc1c(Br)cc(C#N)cc1Br [Bromoxynil octanoate]	-38±2%	-109±13	15.3 ± 5.08	31.6	125	28.6 ± 22.7	–	–
CC(C)C(C(=O)OC(C#N)c1cccc(Oc2ccccc2)c1)c1ccc(Cl)cc1 (stereo not drawn) [Fenvalerate]	inactive	-69±10	–	35.5	60	–	inactive	32.1
CCCCC(=O)O[C@]1(C(=O)CO)[C@H](C)C[C@H]2[C@@H]3CCC4=CC(=O)C=C[C@]4(C)[C@@]3(F)[C@@H](O)C[C@@]21C [Dexamethasone valerate]	-66±25%	-74±6	12.1 ± 4.39	17.3	114	23.5 ± 5.67	–	–

SMILES	MMP assays efficacy (%) Rat Hepatocytes (rat primary hepatocytes [1])	MMP assays efficacy (%) qHTS-HepG2 (HepG2 cells [2]) [%]	IC50 (HepG2 cells [2]; [5]) [µM]	IC50 (HepG2 cells [3]) [µM]	Emax (HepG2 cells [3]) [%]	IC50 (rat primary hepatocytes [4]) [µM]	MMP assays IC50 (µM) Rat Hepatocytes (rat primary hepatocytes [4])	IC50 (HepG2 cells [2]; [6]) [µM]
NC(=O)N1C(=O)/C(=C(\O)c2cccs2)c2cc(Cl)ccc21 [Tenidap]	-96±13%	-111±5	–	15.8	102	21.1 ± 7.88	–	12.5 ± 1.19
CCCCCc1cc(O)c2c(c1)OC(C)(C)c1ccc(C)cc1-2 [Cannabinol]	-98±2%	-124±7	1.68	1.09	103	21.8	–	–
C[C@@H]1O[C@@H](O[C@@H]2C=C3CC[C@@H]4[C@H](CC[C@]5(C)[C@@H](c6ccc(=O)oc6)CC[C@]45O)[C@@]3(C)CC2)[C@H](O)[C@H](O)[C@H]1O [Proscillaridin]	inactive	-72±4	–	0.066	86	–	inactive	0.09 ± 0.02
O=[N+]([O-])c1ccc(Oc2ccc(C(F)(F)F)cc2[N+](=O)[O-])cc1 [Fluorodifen]	-114±10%	-89±20	–	28.2	94	24.1 ± 15	–	27.3 ± 25.1
CCCCOC(=O)c1ccc(O)cc1 [Butylparaben]	inactive	-109±15	19	35.5	124	–	inactive	–
COC(=O)[C@]12CCC(C)(C)C[C@H]1[C@H]1C(=O)C=C3[C@@]4(C)C=C(C#N)C(=O)C(C)(C)[C@@H]4CC[C@@]3(C)[C@]1(C)CC2 [Bardoxolone methyl]	-90±57%	-114±5	5.11 ± 1.27	17.3	122	17.4 ± 2	–	–
CC[C@@]1(O)C[C@H](O[C@H]2C[C@H](N(C)C)[C@H](O[C@H]3C[C@H](O)[C@H](O[C@H]4CCC(=O)[C@H](C)O4)[C@H](C)O3)[C@H](C)O2)c2c(cc3c(c2O)C(=O)c2c(O)cccc2C3=O)[C@H]1C(=O)OC [Aclarubicin hydrochloride]	-49±12%	-70±15	3.15 ± 2.82	2.45	39	6.89 ± 9.73	–	–
C[C@H]1O[C@@H](O[C@H]2[C@@H](O)C[C@H](O[C@H]3[C@@H](O)C[C@H](O[C@H]4CC[C@@]5(C)[C@H](CC[C@@H]6[C@@H]5C[C@@H](O)[C@]5(C)[C@@H](C7=CC(=O)OC7)CC[C@]65O)C4)O[C@@H]3C)O[C@@H]2C)C[C@H](O)[C@@H]1O [Digoxin]	inactive	-71±8	0.52 ± 0.09	0.13	105	–	inactive	–
C[C@]12CC[C@@H]3c4ccc(O)cc4CC[C@H]3[C@@H]1CC[C@H]2O [Compound 17alpha-Estradiol]	-64±3%	-106±11	37.8 ± 13.9	22.4	105	35.5	–	–
Cc1ccccc1C(=O)Nc1cccc(OC(C)C)c1 [Mepronil]	-39±16%	-73±6	–	39.8	72	56.2	–	40.9 ± 19.2
C[C@]12CCC(=O)C[C@@H]1CC[C@@H]1[C@@H]2CC[C@]2(C)[C@@H](O)CC[C@@H]12 [Compound 5alpha-Dihydrotestosterone]	inactive	-72±9	13.3 ± 6.16	17.3	45	–	inactive	–
CCCN(CCC)c1c([N+](=O)[O-])cc(C(F)(F)F)cc1[N+](=O)[O-] [Trifluralin]	-53±24%	-53±8	–	39.8	78	32.6 ± 23.1	–	46.7 ± 9.14
CN1C(=O)[C@@H](NC(=O)c2cc3ccccc3[nH]2)N=C(c2ccccc2)c2ccccc21 [Devazepide]	-50±14%	-81±7	12.5 ± 5.62	10.9	63	15.6 ± 7.19	–	–
CCC(C)(C)c1ccc(O)cc1 [4-(2-Methylbutan-2-yl)phenol]	inactive	-95±13	22.7 ± 3.07	35.5	96	–	inactive	–
CCOc1ccccc1OCCN[C@H](C)Cc1ccc(OC)c(S(N)(=O)=O)c1 [Tamsulosin hydrochloride]	-45±27%	-70±8	–	30.8	80	25.1 ± 8.04	–	27.2 ± 2.92
CC(=O)[C@]1(O)Cc2c(O)c3c(c(O)c2[C@@H](O[C@H]2C[C@H](N)[C@H](O)[C@H](C)O2)C1)C(=O)c1c(O)cccc1C3=O [Carminomycin]	inactive	-91±17	1.25 ± 0.73	21.8	68	–	inactive	–
